Experimental data reported in ChEMBL document CHEMBL1153744, “Diketopiperazines from the Cordyceps-colonizing fungus Epicoccum nigrum” (J Nat Prod, 2009).

What was measured:
[1] = tested on: Human immunodeficiency virus 1; assay: Inhibition of HIV1 viral replication infected in human C8166 cells assessed as suppression of virion-associated p24 antigen production after 4 days by ELISA; type: functional, organism-based; settings: Human immunodeficiency virus 1, C8166, 96 h
[2] = Cytotoxicity against human […] cells after 4 days by MTT assay; type: cell-based

Row | EC50 [1] [µM] | SMILES | CC50 at 96 h [2] [µM]
1 | 27.9 | CN1C(=O)[C@H](Cc2ccccc2)NC(=O)/C1=C/c1ccccc1 [DIPHENYLALAZINE A] | > 100
2 | 13.5 | CS[C@@]12C[C@H]3C(=O)CC[C@H](O)[C@H]3N1C(=O)[C@]1(SC)C[C@H]3C(=O)CC[C@H](O)[C@H]3N1C2=O [EPICOCCIN G] | > 100
3 | 42.2 | CS[C@@]12C[C@H]3C(=O)C[C@H](O)[C@H](O)[C@H]3N1C(=O)[C@]1(SC)C[C@H]3C(=O)C[C@H](O)[C@H](O)[C@H]3N1C2=O [EPICOCCIN H] | > 100
